Results as given in PubChem BioAssay AID1996.
Converted amounts (≈) assume the structure as drawn.

Settings: buffer; pH 7.4; 200.0 µM

Point of comparison: `COc1ccccc1C(=O)Nc1nc(C)cc(C)n1`, solubility kinetic 31.7 µg/mL (≈ 123 µM). Against it:
- COCCNc1oc(-c2ccccc2Cl)nc1S(=O)(=O)c1ccc(C)cc1 — within 1.5-fold, 44.1 µg/mL (≈ 108 µM)
- CSc1ncc(CN2CCN(C3CCCC3)C(CCO)C2)cn1 (stereo not given) — within 1.5-fold, 42.6 µg/mL (≈ 127 µM)
- CCN(Cc1ccccc1)C(=O)c1cccnc1 — within 1.5-fold, 35.9 µg/mL (≈ 149 µM)
- Cc1nc2ccccn2c1C(=O)NN=C1CCCC1 — higher, > 38.4 µg/mL
- O=C(NC(=S)NCCO)c1sc2ccccc2c1Cl — 18-fold lower, 1.8 µg/mL (≈ 5.72 µM)
- C/C(=N/NC(=O)CNC(=O)c1ccco1)c1ccco1 — higher, > 41.3 µg/mL
- COc1ccc(C(=O)NCC(=O)OCC(=O)N2CCc3ccccc32)cc1 — within 1.5-fold, 23 µg/mL (≈ 62.4 µM)
- Cc1nc2ccc(NS(=O)(=O)c3c(F)cccc3F)cc2s1 — higher, > 51.1 µg/mL
- Cc1ccc(C2=NCC(=O)Nc3ccc(Br)cc32)cc1 — within 1.5-fold, 42.1 µg/mL (≈ 128 µM)
- CC1CCCN(C(=O)COC(=O)C2=COCCO2)C1 (stereo not given) — higher, > 40.4 µg/mL
- CC(C)C(NC(=O)c1ccc(F)cc1)C(=O)NCC1CCCO1 (stereo not given) — higher, > 48.4 µg/mL
- O=S(=O)(Nc1ccccc1)c1cccc2nonc12 — higher, > 41.3 µg/mL
- CCOC(=O)c1cnc(SCC(=O)NNC(=O)c2ccco2)nc1N — higher, > 54.8 µg/mL
- O=S(=O)(Cc1noc(-c2ccccc2Cl)n1)c1ccccn1 — within 1.5-fold, 37.2 µg/mL (≈ 111 µM)
- O=C(O)C(=O)O.O=S(=O)(c1cccc(C(F)(F)F)c1)N1CCN(CC(O)COCc2ccccc2)CC1 (stereo not given) — higher, > 82.3 µg/mL
- Cc1cc(C)c(NC(=O)C2CCCO2)c(C)c1NC(=O)C1CCCO1 (stereo not given) — higher, > 52 µg/mL
- S=C(Nc1ccc(Oc2ccccc2)cc1)Nc1cccnc1 — within 1.5-fold, 30 µg/mL (≈ 93.3 µM)
- CC(=O)Nc1nc2cccc([N+](=O)[O-])c2s1 — 11-fold lower, 2.8 µg/mL (≈ 11.8 µM)
- COc1ccc(NC(=O)c2ccc(NC(=O)C3CC3)cc2)cc1 — lower, < 0.3 µg/mL
- CCN(CC)C(=O)c1ccc(NC(=O)c2c(C)noc2C)cc1 — higher, > 47.3 µg/mL
- COCCn1c(C)cc(C(=O)COc2cccnc2[N+](=O)[O-])c1C — 1.6-fold higher, 49.7 µg/mL (≈ 149 µM)
- Fc1ccccc1CNC(=S)NC1CCCCC1 — higher, > 40 µg/mL
- CCc1nn(CC(=O)N2CCC(C)CC2)c(=O)c2cccn12 — higher, > 45.4 µg/mL
- Cl.c1ccc2c(N3CCNCC3)cccc2c1 — higher, > 37.3 µg/mL
- CSc1cccc(NC(=S)NCCCO)c1 — within 1.5-fold, 37.3 µg/mL (≈ 145 µM)
- Cc1cc(C)cc(OCC(=O)NC(C)c2ccccc2)c1 (stereo not given) — within 1.5-fold, 28.8 µg/mL (≈ 102 µM)
- Cc1ccccc1N1C(=O)CC2(CCCC2)CC1=O — within 1.5-fold, 37.2 µg/mL (≈ 145 µM)
- CCOc1ccc(Nc2nc(N)c([N+](=O)[O-])c(NCc3ccccc3)n2)cc1 — lower, < 0.1 µg/mL
- O=c1[nH]c(-c2ccccc2)cnc1-c1ccccc1 — 79-fold lower, 0.4 µg/mL (≈ 1.61 µM)
- CCC(=O)OCCNc1nc(-c2ccccc2)nc2ccccc12.Cl — 6-fold lower, 5.3 µg/mL
- O=C(N/N=C/c1cc(Cl)cc([N+](=O)[O-])c1O)C1CC1 — higher, > 42.6 µg/mL
- O=C(CCCCC(=O)NCCc1ccccc1)NCCc1ccccc1 — 11-fold lower, 2.8 µg/mL (≈ 7.94 µM)
- CSCc1ccc(C(=O)Nc2ccc(C(N)=O)cc2)cc1 — 40-fold lower, 0.8 µg/mL (≈ 2.66 µM)
- O=C(NCC1CCCO1)C1CC(=O)N(c2ccccc2)C1 (stereo not given) — higher, > 43.3 µg/mL
- NS(=O)(=O)c1cccc(NC(=O)COC(=O)CCC2CCCC2)c1 — higher, > 53.2 µg/mL
- C/C(=C/c1ccccc1)C(=O)N1CCC(C)CC1 — higher, > 36.5 µg/mL
- CCOC(=O)c1c(O)cc(C)cc1Nc1ccccc1 — lower, < 0.6 µg/mL
- CCOc1ccccc1NC(=O)Nc1ccon1 — 2-fold lower, 15.5 µg/mL (≈ 62.7 µM)
- O=C(COC(=O)c1cnccn1)Nc1ncc(C(F)(F)F)cc1Cl — 1.7-fold higher, 53.4 µg/mL (≈ 148 µM)
- O=C(COc1ccc2c(-c3ccccc3)cc(=O)oc2c1)NC(Cc1c[nH]c2ccccc12)C(=O)O (stereo not given) — higher, > 72.4 µg/mL
- CCOc1ccccc1C(=O)Nc1c[nH]c(=O)[nH]c1=O — 13-fold lower, 2.4 µg/mL (≈ 8.72 µM)
- COc1ccccc1NC(=O)c1csc2c1CCC(C)C2 (stereo not given) — 26-fold lower, 1.2 µg/mL (≈ 3.98 µM)
- CC(C)(CN1CCOCC1)NS(=O)(=O)c1ccccc1 — within 1.5-fold, 38 µg/mL (≈ 127 µM)
- CN1CCN(C(=O)/C=C/c2ccc(Cl)c(Cl)c2)CC1 — within 1.5-fold, 41 µg/mL (≈ 137 µM)
- Cc1cc([N+](=O)[O-])nn1CC(=O)NCCCN1CCOCC1 — higher, > 46.7 µg/mL
- COC(=O)c1sccc1NC(=S)Nc1cc(C)ccc1OC — within 1.5-fold, 36.3 µg/mL (≈ 108 µM)
- CN1C2CCC1CC(OC(c1ccccc1)c1ccccc1N)C2 (stereo not given) — higher, > 48.4 µg/mL
- [Br-].c1ccc(-c2c[n+]3c(n2-c2ccccc2)SCC3)cc1 — higher, > 53.9 µg/mL
- CCN(CCO)c1ncnc2onc(-c3ccc(F)cc3)c12 — higher, > 45.3 µg/mL
- CCOC(=O)Cn1c(C)cc(COC)c(C#N)c1=O — higher, > 39.6 µg/mL
- NC(=O)COc1ccc2cc(-c3ccc(F)cc3)c(=O)oc2c1 — lower, < 0.7 µg/mL
- CSc1nc2nc(-c3cccs3)cc(C(F)(F)F)c2c(=O)[nH]1 — 13-fold lower, 2.5 µg/mL (≈ 7.28 µM)
- CCCNC(=O)CNC(=S)N(Cc1ccccc1F)C1CCCCC1 — within 1.5-fold, 42.3 µg/mL (≈ 116 µM)
- CCN(CC)C(=S)SCC(=O)Nc1ncc2c(n1)CC(C)(C)CC2=O — 15-fold lower, 2.1 µg/mL (≈ 5.52 µM)
- CCOC(=O)Cn1c(=O)oc2cc(S(=O)(=O)NC(C)(C)CC)ccc21 — 1.7-fold higher, 53.8 µg/mL (≈ 145 µM)
- COc1ccccc1NC(=O)c1ccc(NC(=O)COC(=O)c2cccnc2Cl)cc1 — 4.3-fold lower, 7.4 µg/mL (≈ 16.8 µM)
- CC(=O)N/C(=C\c1ccccc1)C(=O)OCC(=O)N(C)C1CCS(=O)(=O)C1 (stereo not given) — higher, > 59.2 µg/mL
- O=C1Nc2cc(C(F)(F)F)ccc2N2CCCCC12 (stereo not given) — 4.5-fold lower, 7.1 µg/mL (≈ 26.3 µM)
- Cc1ccc(NC(=O)CCc2ccccc2)cc1S(=O)(=O)N1CCOCC1 — 1.8-fold higher, 56.7 µg/mL (≈ 146 µM)
- O=C1Nc2ccccc2CCc2ccccc21 — higher, > 33.5 µg/mL
- Cc1cccc(N2CCN(C(=O)c3ccc(S(=O)(=O)N(C)c4ccccc4)cc3)CC2)c1C — 4.7-fold lower, 6.7 µg/mL (≈ 14.5 µM)
- CC(=O)c1ccc(OC(C)C(=O)NCC2(N3CCOCC3)CCCCC2)cc1 (stereo not given) — higher, > 58.3 µg/mL
- CSc1ccc(C(=O)NCC(=O)O)cc1[N+](=O)[O-] — higher, > 40.5 µg/mL
- Fc1ccc(F)c(CNc2ncnc3cc(Cl)ccc23)c1 — 24-fold lower, 1.3 µg/mL (≈ 4.25 µM)
- CSc1c(CC(=O)Nc2ccccc2)n(C)c2ccccc12 — 79-fold lower, 0.4 µg/mL (≈ 1.29 µM)
- Cc1cccc[n+]1CC(=O)c1ccccc1.[Br-] — higher, > 43.8 µg/mL
- O=C(Nc1ccc(S(=O)(=O)N2CCOCC2)cc1)c1cccnc1 — higher, > 52.1 µg/mL
- O=C1c2ccccc2C(=O)N1CCOc1ccccc1Br — 7.9-fold lower, 4 µg/mL (≈ 11.6 µM)
- COc1cccc(C(N)=O)c1OC(=O)Cc1ccccc1F — higher, > 45.5 µg/mL
- c1ccc(-c2csc(NC3CCCCC3)n2)cc1 — 7.7-fold lower, 4.1 µg/mL (≈ 15.9 µM)
- Cc1noc(C)c1C(=O)N1CCN(c2ccccc2O)CC1 — within 1.5-fold, 44.9 µg/mL (≈ 149 µM)
- N#CC1c2ccccc2C=CN1C(=O)c1ccccc1 (stereo not given) — within 1.5-fold, 27.6 µg/mL (≈ 106 µM)
- CSc1nc2ccccc2c(=O)n1Cc1ccc(F)cc1 — lower, < 0.3 µg/mL
- COC(=O)c1ccc(COc2cc([N+](=O)[O-])cc3cccnc23)o1 — 9.6-fold lower, 3.3 µg/mL (≈ 10.1 µM)
- Cn1nccc1C(=O)OCC(=O)Nc1cccc(Cl)c1 — higher, > 44.1 µg/mL
- O=C1C2C3C=CC(CC3)C2C(=O)N1c1ccc([N+](=O)[O-])cc1 (stereo not given) — 9.3-fold lower, 3.4 µg/mL (≈ 11.4 µM)
- COc1ccc(NC(=O)/C(C#N)=C/c2ccc[nH]2)c(OC)c1 — 110-fold lower, 0.3 µg/mL (≈ 1.01 µM)
- CS(=O)(=O)NCC(c1cccnc1)N1CCN(c2ccccc2F)CC1 (stereo not given) — 1.7-fold higher, 55.4 µg/mL (≈ 146 µM)
- S=C(c1ccccc1)N1CCCC1 — not separable, > 28.7 µg/mL
- O=c1c2c3c(sc2nc2n1CCC2)CCCC3 — within 1.5-fold, 33.8 µg/mL (≈ 137 µM)
- COCCN1C(=O)NC(=O)/C(=C\c2ccc(F)cc2)C1=O — within 1.5-fold, 33.5 µg/mL (≈ 115 µM)
- O=C1Cc2ccccc2C(=O)N1c1ccccc1 — within 1.5-fold, 35.1 µg/mL (≈ 148 µM)
- CS(=O)(=O)Nc1ccc2c(c1)OCC(=O)N2Cc1ccccc1 — within 1.5-fold, 42.4 µg/mL (≈ 128 µM)
- O=C(c1ccncc1)c1ccc([N+](=O)[O-])cc1 — higher, > 34.2 µg/mL
- Cc1ccc(N2C(=O)CC(N3CCc4ccccc43)C2=O)cc1Cl (stereo not given) — lower, < 0.4 µg/mL
- O=C(CSc1nc2ccccc2s1)c1ccc(O)cc1O — 9.6-fold lower, 3.3 µg/mL (≈ 10.4 µM)
- CCOC(=O)c1cc(CC)sc1/N=C/C1C(=O)CCCC1=O — 1.6-fold lower, 19.5 µg/mL (≈ 60.7 µM)
- COc1ccc(Oc2nc(-c3ccccn3)nc3ccccc23)cc1 — 1.8-fold lower, 17.6 µg/mL (≈ 53.4 µM)
- N#CCCN(C(=O)CSc1nc2ccccc2c(=O)[nH]1)c1ccc(F)cc1 — higher, > 57.4 µg/mL
- Cc1ccc(NC(=S)NCCc2ccc(Cl)cc2)c(C)c1 — lower, < 0.3 µg/mL
- CSc1ccccc1NC(=O)CCc1ccccc1 — within 1.5-fold, 35.5 µg/mL (≈ 131 µM)
- Cn1c(CNC(=O)c2ccc(F)cc2)cc2ccccc21 — within 1.5-fold, 24.7 µg/mL (≈ 87.5 µM)
- COc1ccc(-c2csc(Nc3cccc(C)n3)n2)cc1C — 9.3-fold lower, 3.4 µg/mL (≈ 10.9 µM)
- O=C(C=C1NCCN1)c1ccccc1 — not separable, > 28.2 µg/mL
- O=C(CCS(=O)(=O)c1ccccc1Cl)NC1CCCCCC1 — higher, > 51.6 µg/mL
- O=C(O)C1C2C=CC(C2)C1C(=O)Nc1ccccc1Br (stereo not given) — higher, > 50.4 µg/mL
- CCc1c(C)nc(N2CCN(c3ccc(Cl)cc3)CC2)[nH]c1=O — 29-fold lower, 1.1 µg/mL (≈ 3.3 µM)
- COCCCNC(=O)CN1C(=O)c2cccc3cccc1c23 — higher, > 44.8 µg/mL
- S=c1[nH]c2ccc(Cc3ccc4[nH]c(=S)[nH]c4c3)cc2[nH]1 — 19-fold lower, 1.7 µg/mL (≈ 5.44 µM)
- O=S(=O)(Nc1ccon1)c1cc(Cl)ccc1Cl — within 1.5-fold, 43.3 µg/mL (≈ 148 µM)
- Cl.O=[N+]([O-])c1ccccc1OCCCN1CCc2ccccc2C1 — higher, > 52.3 µg/mL
- CCOC(=O)c1ccc(NC(=O)NCc2ccccc2OC)cc1 — 13-fold lower, 2.4 µg/mL (≈ 7.31 µM)
- COc1ccccc1/C=C/C(=O)NC(=S)Nc1ccccn1 — 24-fold lower, 1.3 µg/mL (≈ 4.15 µM)
- Cc1c(C(=O)N(C)C(C)c2ccncn2)oc2c(F)cccc12 (stereo not given) — higher, > 47 µg/mL
- O=C(CCNC(=O)c1ccccc1)NNC(=O)c1ccccc1Br — higher, > 58.5 µg/mL
- COc1ccc(-c2csc(Nc3ccccn3)n2)cc1OC — 5.8-fold lower, 5.5 µg/mL (≈ 17.6 µM)
- CN(C)C(=O)c1ccc(NC(=O)c2ccccc2-c2ccccc2)cc1 — higher, > 51.7 µg/mL
- O=C(COC(=O)c1cnccn1)NCc1ccc(Cl)cc1 — higher, > 45.9 µg/mL
- Cc1ccc(/C=C/C(=O)Oc2ccc(C#N)cc2)o1 — lower, < 0.5 µg/mL
- COc1ccc(OC)c(CCNC(=O)CCc2cn(C)c3ccccc23)c1 — within 1.5-fold, 30.6 µg/mL (≈ 83.5 µM)
- Cn1c(-c2ccccn2)[n+](C)c2ccccc21.[Cl-] — higher, > 39 µg/mL
- Cc1onc(-c2ccccc2)c1C(=O)N=C(N)c1ccc(Cl)cc1 — 29-fold lower, 1.1 µg/mL (≈ 3.24 µM)
- Cc1ccnc(N2CCCC(C(=O)Nc3cccc(C)c3C)C2)n1 (stereo not given) — 53-fold lower, 0.6 µg/mL (≈ 1.85 µM)
- CNC(=O)CN1C(=O)NC2(CCc3ccccc3C2)C1=O (stereo not given) — higher, > 43.1 µg/mL
- N#C/C(=C\C=C\c1ccccc1[N+](=O)[O-])C(=O)NCc1ccccc1 — 8.6-fold lower, 3.7 µg/mL (≈ 11.1 µM)
- C=CCNc1nc(Cl)nc(NCc2ccco2)n1 — 17-fold lower, 1.9 µg/mL (≈ 7.15 µM)
- CC(=O)c1cccc(NC(=O)CCn2c(=S)oc3ccccc32)c1 — 40-fold lower, 0.8 µg/mL (≈ 2.35 µM)
- Cc1ccc(C)c2sc(N)nc12 — not separable, > 26.7 µg/mL
- N#Cc1ccc(CSc2ncccn2)cc1 — higher, > 34.1 µg/mL
